Measured values: ChEMBL document CHEMBL1201862, “PubChem BioAssay data set” (2004)
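Assay format: 96-well plates, 48-hour exposure. GI50 is the concentration that inhibits growth by half.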 Activity calls are given as the source filed them. No stated cut-off is given here; in the data, active = GI50 up to about 1.1 µM and inactive = higher.

What was measured:
Test in all cases: inhibition of tumour cell growth, NCI panel, 48 h
OVCAR-4 = system: OVCAR-4
SK-OV-3 = system: SK-OV-3
NCI-H460 = system: NCI-H460
OVCAR-5 = system: OVCAR-5
SNB-19 = system: SNB-19
SF-268 = system: SF-268
HOP-62 = system: HOP-62
HOP-92 = system: HOP-92
DU-145 = system: DU-145
HCT-15 = system: HCT-15
MCF7 = system: MCF7
Hs-578T = system: Hs-578T
NCI-H522 = system: NCI-H522
MOLT-4 = system: MOLT-4
SW-620 = system: SW-620
HL-60 = system: HL-60
NCI-H23 = system: NCI-H23
CCRF-CEM = system: CCRF-CEM
OVCAR-3 = system: OVCAR-3
SK-MEL-5 = system: SK-MEL-5

Structure (SMILES) | GI50 (OVCAR-4) | GI50 (SK-OV-3) | GI50 (NCI-H460) | GI50 (OVCAR-5) | GI50 (SNB-19) | GI50 (SF-268) | GI50 (HOP-62) | GI50 (HOP-92) | GI50 (DU-145) | GI50 (HCT-15) [µM] | GI50 (MCF7) | GI50 (Hs-578T) | GI50 (NCI-H522) | GI50 (MOLT-4) | GI50 (SW-620) | GI50 (HL-60) | GI50 (NCI-H23) | GI50 (CCRF-CEM) | GI50 (OVCAR-3) | GI50 (SK-MEL-5)
OCC1CCCCCCCCCCC12SCCCS2 (stereo not given) | > 100 µM (inactive) | > 100 µM (inactive) | > 100 µM (inactive) | > 100 µM (inactive) | > 100 µM (inactive) | > 100 µM (inactive) | > 100 µM (inactive) | > 100 µM (inactive) | > 100 µM (inactive) | > 100 | > 100 µM (inactive) | > 100 µM (inactive) | > 100 µM (inactive) | > 100 µM (inactive) | > 100 µM (inactive) | > 100 µM (inactive) | > 100 µM (inactive) | > 100 µM (inactive) | > 100 µM (inactive) | > 100 µM (inactive)
CNC(=O)N1CN(c2ccccc2)C2(CCN(CCCC3(c4ccc(F)cc4)OCCO3)CC2)C1=O | > 100 µM (inactive) | > 100 µM (inactive) | > 100 µM (inactive) | > 100 µM (inactive) | > 100 µM (inactive) | > 100 µM (inactive) | > 100 µM (inactive) | > 100 µM (inactive) | > 100 µM (inactive) | > 100 | > 100 µM (inactive) | > 100 µM (inactive) | > 100 µM (inactive) | > 100 µM (inactive) | > 100 µM (inactive) | > 100 µM (inactive) | > 100 µM (inactive) | > 100 µM (inactive) | > 100 µM (inactive) | > 100 µM (inactive)
O=c1[nH]c2ccc(CC(=S)N3CCN(c4ccccc4)CC3)cc2o1 | > 100 µM (inactive) | > 100 µM (inactive) | > 100 µM (inactive) | > 100 µM (inactive) | > 100 µM (inactive) | > 76.4 µM (inactive) | > 88.5 µM (inactive) | 84.9 µM (inactive) | > 100 µM (inactive) | 66.2 | > 100 µM (inactive) | > 54.2 µM (inactive) | 86.7 µM (inactive) | > 80.7 µM (inactive) | > 100 µM (inactive) | 6.18 µM (inactive) | > 100 µM (inactive) | 71.3 µM (inactive) | > 100 µM (inactive) | 48.9 µM (inactive)
C#CC(O)/C=C/C(O)CCCC(O)CC#CC(O)C#CCCCCC(O)/C=C/CCCCCC(=O)CCCCCCCCCCCCCC(O)C(O)C#CC(=O)O (stereo not given) | 15.8 µM (inactive) | > 25 µM (inactive) | > 25 µM (inactive) | > 25 µM (inactive) | > 25 µM (inactive) | > 25 µM (inactive) | > 25 µM (inactive) | > 25 µM (inactive) | > 25 µM (inactive) | > 25 | > 25 µM (inactive) | > 25 µM (inactive) | 4.88 µM (inactive) | 12.8 µM (inactive) | – | > 25 µM (inactive) | > 25 µM (inactive) | 6.81 µM (inactive) | – | > 25 µM (inactive)
COc1cc(C2S/C(=C/c3ccccc3)C(=O)N2c2ccc([N+](=O)[O-])cc2)cc(OC)c1OC (stereo not given) | 45.9 µM (inactive) | > 100 µM (inactive) | 48 µM (inactive) | 15.5 µM (inactive) | > 100 µM (inactive) | > 83.9 µM (inactive) | 92.7 µM (inactive) | > 100 µM (inactive) | > 41.2 µM (inactive) | 26.4 | 58.3 µM (inactive) | > 100 µM (inactive) | > 63.5 µM (inactive) | 47.3 µM (inactive) | > 100 µM (inactive) | 40.6 µM (inactive) | > 100 µM (inactive) | 32.6 µM (inactive) | > 78 µM (inactive) | 25.6 µM (inactive)
CCC(CON(C)c1ccccc1)(SC)SC | > 100 µM (inactive) | > 100 µM (inactive) | > 100 µM (inactive) | > 100 µM (inactive) | > 100 µM (inactive) | > 100 µM (inactive) | > 100 µM (inactive) | > 100 µM (inactive) | 82.6 µM (inactive) | > 100 | > 100 µM (inactive) | 80.2 µM (inactive) | > 100 µM (inactive) | > 100 µM (inactive) | > 100 µM (inactive) | 99.1 µM (inactive) | > 100 µM (inactive) | > 100 µM (inactive) | – | > 100 µM (inactive)
COc1cc2c(c(OC)c1)C(=O)O[C@H](C)CCCC/C=C/C2 | 12.1 µM (inactive) | 45.9 µM (inactive) | 11.1 µM (inactive) | 15.1 µM (inactive) | 16.2 µM (inactive) | 8.17 µM (inactive) | 8.15 µM (inactive) | 9.77 µM (inactive) | 11.7 µM (inactive) | 10.2 | 11.6 µM (inactive) | 20.9 µM (inactive) | 8.09 µM (inactive) | 7.31 µM (inactive) | 7.94 µM (inactive) | 0.824 µM (active) | 11.2 µM (inactive) | 2.26 µM (inactive) | 9.38 µM (inactive) | 5.71 µM (inactive)
O=C1CC2OCC=C3CN4CCC56c7ccccc7N1C5C2C3CC46O (stereo not given) | > 100 µM (inactive) | > 100 µM (inactive) | > 100 µM (inactive) | > 100 µM (inactive) | > 100 µM (inactive) | > 100 µM (inactive) | – | > 100 µM (inactive) | > 100 µM (inactive) | > 100 | > 100 µM (inactive) | > 100 µM (inactive) | 47.5 µM (inactive) | > 100 µM (inactive) | > 100 µM (inactive) | > 100 µM (inactive) | > 100 µM (inactive) | > 100 µM (inactive) | > 100 µM (inactive) | > 100 µM (inactive)
O=C1C(O)=C(CC=C(Cl)Cl)C(=O)c2ccccc21 | 21.7 µM (inactive) | 41.6 µM (inactive) | 1.45 µM (inactive) | 47.5 µM (inactive) | 11 µM (inactive) | 11.7 µM (inactive) | 12.4 µM (inactive) | 43 µM (inactive) | 23.8 µM (inactive) | 0.757 | 8.87 µM (inactive) | 42.4 µM (inactive) | 14 µM (inactive) | 1.46 µM (inactive) | 8.93 µM (inactive) | 2.07 µM (inactive) | 27.9 µM (inactive) | 2.82 µM (inactive) | 13.5 µM (inactive) | 8 µM (inactive)
COc1c2ccoc2nc2c(OC)c(OCC(O)C(C)(C)O)ccc12 (stereo not given) [EVOXINE] | > 100 µM (inactive) | > 100 µM (inactive) | > 100 µM (inactive) | > 100 µM (inactive) | > 100 µM (inactive) | > 100 µM (inactive) | – | > 100 µM (inactive) | > 100 µM (inactive) | > 100 | > 100 µM (inactive) | > 100 µM (inactive) | > 100 µM (inactive) | > 100 µM (inactive) | > 100 µM (inactive) | > 100 µM (inactive) | > 100 µM (inactive) | > 100 µM (inactive) | > 100 µM (inactive) | > 100 µM (inactive)
Cc1oc2ccccc2c(=O)c1Cn1nnc2ccccc21 | 53.3 µM (inactive) | > 100 µM (inactive) | 43.8 µM (inactive) | > 100 µM (inactive) | > 100 µM (inactive) | 34.3 µM (inactive) | > 100 µM (inactive) | 18.6 µM (inactive) | 25.5 µM (inactive) | 96.2 | 21.8 µM (inactive) | 83.2 µM (inactive) | – | 37.2 µM (inactive) | > 100 µM (inactive) | 48.5 µM (inactive) | > 100 µM (inactive) | 95.1 µM (inactive) | 30.6 µM (inactive) | 20.5 µM (inactive)
Cc1csc2nc(-c3cc([N+](=O)[O-])c(Cl)cc3Cl)c(/C=N/N=C(N)N)n12 | 16 µM (inactive) | – | 20.2 µM (inactive) | 17.4 µM (inactive) | 19.8 µM (inactive) | 16.5 µM (inactive) | 16.3 µM (inactive) | 14.4 µM (inactive) | 16.7 µM (inactive) | 21.2 | 15.3 µM (inactive) | 15.4 µM (inactive) | 15.9 µM (inactive) | 0.0986 µM (active) | 17.2 µM (inactive) | 13.5 µM (inactive) | 16.4 µM (inactive) | 27.2 µM (inactive) | 17 µM (inactive) | 16.1 µM (inactive)
FC(F)(F)c1n[nH]c(SCc2ccc(Cl)cc2)n1 | > 100 µM (inactive) | > 100 µM (inactive) | > 100 µM (inactive) | > 100 µM (inactive) | > 100 µM (inactive) | > 100 µM (inactive) | > 100 µM (inactive) | > 100 µM (inactive) | > 100 µM (inactive) | > 100 | > 100 µM (inactive) | 94.8 µM (inactive) | > 100 µM (inactive) | > 100 µM (inactive) | > 100 µM (inactive) | > 100 µM (inactive) | > 100 µM (inactive) | – | > 100 µM (inactive) | > 100 µM (inactive)
CC(C)(N)C(=O)N[C@@H]1C(=O)N2[C@@H]1SC(C)(C)[C@@H]2C(=O)O | > 100 µM (inactive) | > 100 µM (inactive) | > 100 µM (inactive) | > 100 µM (inactive) | > 100 µM (inactive) | > 100 µM (inactive) | > 100 µM (inactive) | > 100 µM (inactive) | > 100 µM (inactive) | > 100 | > 100 µM (inactive) | > 100 µM (inactive) | > 100 µM (inactive) | – | > 100 µM (inactive) | < 0.01 µM (active) | > 100 µM (inactive) | – | > 100 µM (inactive) | > 100 µM (inactive)
